Measured values taken from PubChem BioAssay (NCI).
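Growth conditions: 96-well plates. Treatment: test compound, 48 hours, 5 concentrations. Analysis: linear interpolation between bracketing concentrations; unreached endpoints set to highest concentration. At the GI50, growth is halved. TGI: concentration producing complete growth inhibition.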

Columns and labels:
Assay in all cases: inhibition of tumour cell growth, NCI panel, 48 h
CAKI-1 renal = system: CAKI-1 renal
OVCAR-8 ovarian = system: OVCAR-8 ovarian
HOP-62 NSCLC = system: HOP-62 NSCLC
SK-OV-3 ovarian = system: SK-OV-3 ovarian
A498 renal = system: A498 renal
MDA-MB-435 = system: MDA-MB-435
CCRF-CEM leukemia = system: CCRF-CEM leukemia
SF-295 CNS = system: SF-295 CNS
UACC-257 melanoma = system: UACC-257 melanoma
UO-31 renal = system: UO-31 renal
RPMI-8226 leukemia = system: RPMI-8226 leukemia
HOP-92 NSCLC = system: HOP-92 NSCLC
KM12 colon = system: KM12 colon
U251 CNS = system: U251 CNS
RXF 393 renal = system: RXF 393 renal
K-562 leukemia = system: K-562 leukemia
SF-268 CNS = system: SF-268 CNS
SK-MEL-5 melanoma = system: SK-MEL-5 melanoma
MALME-3M melanoma = system: MALME-3M melanoma
TK-10 renal = system: TK-10 renal
OVCAR-5 ovarian = system: OVCAR-5 ovarian
NCI-H460 lung = system: NCI-H460 lung
SF-539 CNS = system: SF-539 CNS
DU-145 prostate = system: DU-145 prostate
SNB-75 CNS = system: SNB-75 CNS
LOX IMVI melanoma = system: LOX IMVI melanoma
SK-MEL-2 melanoma = system: SK-MEL-2 melanoma
NCI/ADR-RES ovarian = system: NCI/ADR-RES ovarian
NCI-H23 lung = system: NCI-H23 lung
UACC-62 melanoma = system: UACC-62 melanoma
HT29 colon = system: HT29 colon
M14 melanoma = system: M14 melanoma
HS 578T breast = system: HS 578T breast
T-47D breast = system: T-47D breast
EKVX NSCLC = system: EKVX NSCLC
SK-MEL-28 melanoma = system: SK-MEL-28 melanoma
HCC-2998 colon = system: HCC-2998 colon
SW-620 colon = system: SW-620 colon
786-0 renal = system: 786-0 renal
SR leukemia = system: SR leukemia
ACHN renal = system: ACHN renal
OVCAR-3 ovarian = system: OVCAR-3 ovarian
NCI-H226 lung = system: NCI-H226 lung
SNB-19 CNS = system: SNB-19 CNS
MCF7 breast = system: MCF7 breast
COLO 205 colon = system: COLO 205 colon
IGROV1 ovarian = system: IGROV1 ovarian
BT-549 breast = system: BT-549 breast
A549 NSCLC = system: A549 NSCLC
HCT-116 colon = system: HCT-116 colon
SN12C renal = system: SN12C renal
MOLT-4 leukemia = system: MOLT-4 leukemia
HCT-15 colon = system: HCT-15 colon
NCI-H522 lung = system: NCI-H522 lung
OVCAR-4 ovarian = system: OVCAR-4 ovarian
PC-3 prostate = system: PC-3 prostate
MDA-MB-231 breast = system: MDA-MB-231 breast
HL-60(TB) leukemia = system: HL-60(TB) leukemia

CCOc1ccc2c(c1)C(=O)c1c-2n(CCCN=[N+]=[N-])c(=O)c2cc([N+](=O)[O-])ccc12
GI50 (CAKI-1 renal): 5.71 µM
TGI (CAKI-1 renal): 89.2 µM
GI50 (OVCAR-8 ovarian): 11.9 µM
TGI (OVCAR-8 ovarian): > 100 µM
GI50 (HOP-62 NSCLC): 3000 nM
TGI (HOP-62 NSCLC): 43.6 µM
GI50 (SK-OV-3 ovarian): 5.9 µM
TGI (SK-OV-3 ovarian): 36.2 µM
GI50 (A498 renal): 18.5 µM
TGI (A498 renal): 58.7 µM
GI50 (MDA-MB-435): 39.4 µM
TGI (MDA-MB-435): > 100 µM
GI50 (CCRF-CEM leukemia): 442 nM
TGI (CCRF-CEM leukemia): 2790 nM
GI50 (SF-295 CNS): 4.16 µM
TGI (SF-295 CNS): 74.4 µM
GI50 (UACC-257 melanoma): 96.4 µM
TGI (UACC-257 melanoma): > 100 µM
GI50 (UO-31 renal): 2230 nM
TGI (UO-31 renal): 11.5 µM
GI50 (RPMI-8226 leukemia): 2250 nM
TGI (RPMI-8226 leukemia): 31 µM
GI50 (HOP-92 NSCLC): 7.95 µM
TGI (HOP-92 NSCLC): 46.7 µM
GI50 (KM12 colon): 23.9 µM
TGI (KM12 colon): > 100 µM
GI50 (U251 CNS): 3.57 µM
TGI (U251 CNS): 37.7 µM
GI50 (RXF 393 renal): 28 µM
TGI (RXF 393 renal): > 100 µM
GI50 (K-562 leukemia): 17.2 µM
TGI (K-562 leukemia): > 100 µM
GI50 (SF-268 CNS): 1420 nM
TGI (SF-268 CNS): 38.4 µM
GI50 (SK-MEL-5 melanoma): 1480 nM
TGI (SK-MEL-5 melanoma): 4.84 µM
GI50 (MALME-3M melanoma): 15.4 µM
TGI (MALME-3M melanoma): 61.5 µM
GI50 (TK-10 renal): 30.8 µM
TGI (TK-10 renal): > 100 µM
GI50 (OVCAR-5 ovarian): 6.07 µM
TGI (OVCAR-5 ovarian): > 100 µM
GI50 (NCI-H460 lung): 284 nM
TGI (NCI-H460 lung): 10.7 µM
GI50 (SF-539 CNS): 3.88 µM
TGI (SF-539 CNS): 19 µM
GI50 (DU-145 prostate): 3.86 µM
TGI (DU-145 prostate): 38.6 µM
GI50 (SNB-75 CNS): 17.3 µM
TGI (SNB-75 CNS): 39.9 µM
GI50 (LOX IMVI melanoma): 3.02 µM
TGI (LOX IMVI melanoma): > 100 µM
GI50 (SK-MEL-2 melanoma): 14.4 µM
TGI (SK-MEL-2 melanoma): 38.2 µM
GI50 (NCI/ADR-RES ovarian): 3.91 µM
TGI (NCI/ADR-RES ovarian): > 100 µM
GI50 (NCI-H23 lung): 997 nM
TGI (NCI-H23 lung): > 100 µM
GI50 (UACC-62 melanoma): 2890 nM
TGI (UACC-62 melanoma): 24.1 µM
GI50 (HT29 colon): 21.4 µM
TGI (HT29 colon): > 100 µM
GI50 (M14 melanoma): 3.63 µM
TGI (M14 melanoma): > 100 µM
GI50 (HS 578T breast): 45.9 µM
TGI (HS 578T breast): > 100 µM
GI50 (T-47D breast): 102 nM
TGI (T-47D breast): 1240 nM
GI50 (EKVX NSCLC): 32.5 µM
TGI (EKVX NSCLC): > 100 µM
GI50 (SK-MEL-28 melanoma): 51.7 µM
TGI (SK-MEL-28 melanoma): > 100 µM
GI50 (HCC-2998 colon): 19.1 µM
TGI (HCC-2998 colon): > 100 µM
GI50 (SW-620 colon): 3.42 µM
TGI (SW-620 colon): > 100 µM
GI50 (786-0 renal): 4.1 µM
TGI (786-0 renal): 22.7 µM
GI50 (SR leukemia): 176 nM
TGI (SR leukemia): 11.9 µM
GI50 (ACHN renal): 2020 nM
TGI (ACHN renal): 9.32 µM
GI50 (OVCAR-3 ovarian): 20 µM
TGI (OVCAR-3 ovarian): > 100 µM
GI50 (NCI-H226 lung): 2240 nM
TGI (NCI-H226 lung): 9.92 µM
GI50 (SNB-19 CNS): 4.14 µM
TGI (SNB-19 CNS): 85.5 µM
GI50 (MCF7 breast): 26.1 nM
TGI (MCF7 breast): 6.4 µM
GI50 (COLO 205 colon): 54.1 µM
TGI (COLO 205 colon): > 100 µM
GI50 (IGROV1 ovarian): 195 nM
TGI (IGROV1 ovarian): 16.1 µM
GI50 (BT-549 breast): 13.1 µM
TGI (BT-549 breast): > 100 µM
GI50 (A549 NSCLC): 10.2 µM
TGI (A549 NSCLC): > 100 µM
GI50 (HCT-116 colon): 1820 nM
TGI (HCT-116 colon): > 100 µM
GI50 (SN12C renal): 5.3 µM
TGI (SN12C renal): > 100 µM
GI50 (MOLT-4 leukemia): 1960 nM
TGI (MOLT-4 leukemia): 20.8 µM
GI50 (HCT-15 colon): 16.9 µM
TGI (HCT-15 colon): > 100 µM
GI50 (NCI-H522 lung): 3.58 µM
TGI (NCI-H522 lung): 25.8 µM
GI50 (OVCAR-4 ovarian): 18.9 µM
TGI (OVCAR-4 ovarian): > 100 µM
GI50 (PC-3 prostate): 15.1 µM
TGI (PC-3 prostate): > 100 µM
GI50 (MDA-MB-231 breast): 45 µM
TGI (MDA-MB-231 breast): > 100 µM
GI50 (HL-60(TB) leukemia): 28.5 µM
TGI (HL-60(TB) leukemia): > 100 µM
